Where “and” joins values, the source holds several entries; their conditions need not be identical. Equal values may be shown once. Values belong to the molecule of their own block, whether it stands above or below them. Calls of active or inactive are those of the source. No cut-off for these calls is given here.
Legend:
[1] = test system: HL-60; test: Cytotoxicity against human HL-60 cells assessed as maximum inhibition of cell growth incubated for 4 days by cellTiter-Glo assay relative to control; type: functional; settings: time 4 day
[2] = test system: MV4-11; test: Cytotoxicity against human MV4-11 cells assessed as maximum inhibition of cell growth incubated for 4 days by cellTiter-Glo assay relative to control; type: functional; settings: time 4 day
[3] = test system: HL-60; test: Cytotoxicity against human HL-60 cells assessed as inhibition of cell growth incubated for 4 days by cellTiter-Glo assay; type: functional, cell-based; settings: HL-60, 96 h
[4] = test system: RS4-11; test: Cytotoxicity against human RS4-11 cells assessed as maximum inhibition of cell growth incubated for 4 days by cellTiter-Glo assay relative to control; type: functional; settings: time 4 day
[5] = test system: MOLM-13; test: Cytotoxicity against human MOLM-13 cells assessed as maximum inhibition of cell growth incubated for 4 days by cellTiter-Glo assay relative to control; type: functional; settings: time 4 day
[6] = test system: MOLM-13; test: Cytotoxicity against human MOLM-13 cells assessed as inhibition of cell growth incubated for 4 days by cellTiter-Glo assay; type: functional, cell-based; settings: MOLM-13, 96 h
[7] = test system: MV4-11; test: Cytotoxicity against human MV4-11 cells assessed as inhibition of cell growth incubated for 4 days by cellTiter-Glo assay; type: functional, cell-based; settings: MV4-11, 96 h
[8] = test system: RS4-11; test: Cytotoxicity against human RS4-11 cells assessed as inhibition of cell growth incubated for 4 days by cellTiter-Glo assay; type: functional, cell-based; settings: RS4-11, 96 h
[9] = test system: RS4-11; test: Induction of cell cycle arrest in human RS4-11 cells assessed as accumulation at G1 phase at 1 uM measured after 8 hrs by PI staining based flow cytometric analysis; type: functional
[10] = Toxicity in SCID mouse xenografted with human RS4-11 cells assessed as body weight loss at 0.3 mg/kg, ip administered five days a week for 2 weeks relative to control; type: organism-based; settings: in vivo, 336 h
[11] = test system: RS4-11; test: Downregulation of MYC gene expression in human RS4-11 cells at 1 nM measured after 8 hrs by qRT-PCR analysis; type: functional, cell-based
[12] = Toxicity in SCID mouse xenografted with human RS4-11 cells assessed as body weight loss at 1 mg/kg, ip administered three times a week for 2 weeks relative to control; type: organism-based; settings: in vivo, 336 h
[13] = target: T1, Histone acetyltransferase p300 (Homo sapiens, UniProt Q09472); test: Induction of p300 degradation in human RS4-11 cells assessed as maximal degradation incubated for 4 hrs by Western blot assay relative to control; type: cell-based
T1 sequence (Q09472 whole entry): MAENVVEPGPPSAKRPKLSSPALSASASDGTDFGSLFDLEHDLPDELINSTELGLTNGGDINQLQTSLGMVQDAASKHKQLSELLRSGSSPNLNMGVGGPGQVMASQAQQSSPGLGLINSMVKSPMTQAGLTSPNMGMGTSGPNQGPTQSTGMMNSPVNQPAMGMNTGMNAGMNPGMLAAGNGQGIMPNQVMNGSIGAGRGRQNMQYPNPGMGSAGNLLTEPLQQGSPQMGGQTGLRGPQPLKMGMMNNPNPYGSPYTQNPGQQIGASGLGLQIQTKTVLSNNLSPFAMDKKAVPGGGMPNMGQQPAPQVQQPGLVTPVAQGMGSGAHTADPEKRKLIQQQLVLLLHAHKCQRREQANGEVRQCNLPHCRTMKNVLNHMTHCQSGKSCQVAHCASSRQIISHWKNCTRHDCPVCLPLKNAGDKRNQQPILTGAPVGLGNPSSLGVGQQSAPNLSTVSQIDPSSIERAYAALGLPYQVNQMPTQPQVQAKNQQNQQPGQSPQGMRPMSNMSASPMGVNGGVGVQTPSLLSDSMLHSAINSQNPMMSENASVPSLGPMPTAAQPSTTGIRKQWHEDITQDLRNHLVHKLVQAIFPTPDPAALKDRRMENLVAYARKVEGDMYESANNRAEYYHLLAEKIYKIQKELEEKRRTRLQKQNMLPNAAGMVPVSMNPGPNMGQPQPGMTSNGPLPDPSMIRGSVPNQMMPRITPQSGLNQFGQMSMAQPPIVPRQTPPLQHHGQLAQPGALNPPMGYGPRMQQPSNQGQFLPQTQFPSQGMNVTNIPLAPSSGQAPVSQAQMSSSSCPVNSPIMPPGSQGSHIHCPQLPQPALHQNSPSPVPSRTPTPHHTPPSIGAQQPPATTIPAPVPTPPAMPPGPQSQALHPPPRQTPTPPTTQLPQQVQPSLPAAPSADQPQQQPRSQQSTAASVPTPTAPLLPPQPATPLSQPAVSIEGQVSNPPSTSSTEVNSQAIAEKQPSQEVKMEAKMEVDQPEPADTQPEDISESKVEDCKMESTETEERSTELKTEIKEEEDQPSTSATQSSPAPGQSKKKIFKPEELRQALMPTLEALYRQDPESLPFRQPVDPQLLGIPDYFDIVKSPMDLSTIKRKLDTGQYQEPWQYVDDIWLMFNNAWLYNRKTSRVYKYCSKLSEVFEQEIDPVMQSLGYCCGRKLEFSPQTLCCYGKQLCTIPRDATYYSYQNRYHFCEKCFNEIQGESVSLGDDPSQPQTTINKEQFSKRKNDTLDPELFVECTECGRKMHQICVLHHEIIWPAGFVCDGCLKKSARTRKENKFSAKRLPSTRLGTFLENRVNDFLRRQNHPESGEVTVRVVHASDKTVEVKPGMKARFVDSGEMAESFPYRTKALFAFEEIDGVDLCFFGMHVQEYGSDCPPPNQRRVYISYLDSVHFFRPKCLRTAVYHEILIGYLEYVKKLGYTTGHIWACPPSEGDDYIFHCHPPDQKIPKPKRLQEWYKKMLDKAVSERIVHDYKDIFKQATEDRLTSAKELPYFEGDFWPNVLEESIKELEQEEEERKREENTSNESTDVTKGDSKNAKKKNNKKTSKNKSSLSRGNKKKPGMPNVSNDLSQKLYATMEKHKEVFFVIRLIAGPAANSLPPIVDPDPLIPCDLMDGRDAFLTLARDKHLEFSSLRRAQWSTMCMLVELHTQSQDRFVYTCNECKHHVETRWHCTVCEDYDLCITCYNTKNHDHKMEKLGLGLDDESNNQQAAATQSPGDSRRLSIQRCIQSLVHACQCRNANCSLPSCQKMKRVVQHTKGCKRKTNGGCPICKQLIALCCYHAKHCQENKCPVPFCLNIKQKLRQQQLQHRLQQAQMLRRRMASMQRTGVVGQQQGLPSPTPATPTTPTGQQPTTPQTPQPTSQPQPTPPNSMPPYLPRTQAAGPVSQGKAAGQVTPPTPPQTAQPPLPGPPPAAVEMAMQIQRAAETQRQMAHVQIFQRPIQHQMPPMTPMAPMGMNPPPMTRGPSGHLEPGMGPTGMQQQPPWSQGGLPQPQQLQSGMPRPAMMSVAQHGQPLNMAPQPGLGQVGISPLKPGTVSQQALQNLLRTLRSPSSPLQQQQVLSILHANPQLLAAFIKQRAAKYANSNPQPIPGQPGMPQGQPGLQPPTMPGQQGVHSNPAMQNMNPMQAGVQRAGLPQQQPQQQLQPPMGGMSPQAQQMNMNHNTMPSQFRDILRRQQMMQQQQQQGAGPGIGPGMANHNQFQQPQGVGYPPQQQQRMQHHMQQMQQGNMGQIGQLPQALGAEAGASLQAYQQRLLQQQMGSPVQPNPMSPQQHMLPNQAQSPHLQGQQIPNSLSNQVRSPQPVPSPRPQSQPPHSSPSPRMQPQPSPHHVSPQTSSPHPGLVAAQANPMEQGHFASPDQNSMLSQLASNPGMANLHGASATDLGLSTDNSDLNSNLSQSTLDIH

[14] = Toxicity in SCID mouse xenografted with human RS4-11 cells assessed as body weight loss at 3 mg/kg, ip administered once a week on day 1 for 2 weeks relative to control; type: organism-based; settings: in vivo, 336 h
[15] = Drug concentration in SCID mouse tumor xenografted with RS4-11 cells at 3 mg/kg, ip measured after 3 hrs by LC-HRMS method; type: ADME, organism-based, Neoplasm; settings: read-out: Ct
[16] = target: T2, CREB-binding protein (Homo sapiens, UniProt Q92793); test: Induction of CBP degradation in human RS4-11 cells at 10 nM incubated for 3 hrs by Proteomics analysis; type: cell-based
Target sequence in this assay (Q92793 2-2442 limits assumed): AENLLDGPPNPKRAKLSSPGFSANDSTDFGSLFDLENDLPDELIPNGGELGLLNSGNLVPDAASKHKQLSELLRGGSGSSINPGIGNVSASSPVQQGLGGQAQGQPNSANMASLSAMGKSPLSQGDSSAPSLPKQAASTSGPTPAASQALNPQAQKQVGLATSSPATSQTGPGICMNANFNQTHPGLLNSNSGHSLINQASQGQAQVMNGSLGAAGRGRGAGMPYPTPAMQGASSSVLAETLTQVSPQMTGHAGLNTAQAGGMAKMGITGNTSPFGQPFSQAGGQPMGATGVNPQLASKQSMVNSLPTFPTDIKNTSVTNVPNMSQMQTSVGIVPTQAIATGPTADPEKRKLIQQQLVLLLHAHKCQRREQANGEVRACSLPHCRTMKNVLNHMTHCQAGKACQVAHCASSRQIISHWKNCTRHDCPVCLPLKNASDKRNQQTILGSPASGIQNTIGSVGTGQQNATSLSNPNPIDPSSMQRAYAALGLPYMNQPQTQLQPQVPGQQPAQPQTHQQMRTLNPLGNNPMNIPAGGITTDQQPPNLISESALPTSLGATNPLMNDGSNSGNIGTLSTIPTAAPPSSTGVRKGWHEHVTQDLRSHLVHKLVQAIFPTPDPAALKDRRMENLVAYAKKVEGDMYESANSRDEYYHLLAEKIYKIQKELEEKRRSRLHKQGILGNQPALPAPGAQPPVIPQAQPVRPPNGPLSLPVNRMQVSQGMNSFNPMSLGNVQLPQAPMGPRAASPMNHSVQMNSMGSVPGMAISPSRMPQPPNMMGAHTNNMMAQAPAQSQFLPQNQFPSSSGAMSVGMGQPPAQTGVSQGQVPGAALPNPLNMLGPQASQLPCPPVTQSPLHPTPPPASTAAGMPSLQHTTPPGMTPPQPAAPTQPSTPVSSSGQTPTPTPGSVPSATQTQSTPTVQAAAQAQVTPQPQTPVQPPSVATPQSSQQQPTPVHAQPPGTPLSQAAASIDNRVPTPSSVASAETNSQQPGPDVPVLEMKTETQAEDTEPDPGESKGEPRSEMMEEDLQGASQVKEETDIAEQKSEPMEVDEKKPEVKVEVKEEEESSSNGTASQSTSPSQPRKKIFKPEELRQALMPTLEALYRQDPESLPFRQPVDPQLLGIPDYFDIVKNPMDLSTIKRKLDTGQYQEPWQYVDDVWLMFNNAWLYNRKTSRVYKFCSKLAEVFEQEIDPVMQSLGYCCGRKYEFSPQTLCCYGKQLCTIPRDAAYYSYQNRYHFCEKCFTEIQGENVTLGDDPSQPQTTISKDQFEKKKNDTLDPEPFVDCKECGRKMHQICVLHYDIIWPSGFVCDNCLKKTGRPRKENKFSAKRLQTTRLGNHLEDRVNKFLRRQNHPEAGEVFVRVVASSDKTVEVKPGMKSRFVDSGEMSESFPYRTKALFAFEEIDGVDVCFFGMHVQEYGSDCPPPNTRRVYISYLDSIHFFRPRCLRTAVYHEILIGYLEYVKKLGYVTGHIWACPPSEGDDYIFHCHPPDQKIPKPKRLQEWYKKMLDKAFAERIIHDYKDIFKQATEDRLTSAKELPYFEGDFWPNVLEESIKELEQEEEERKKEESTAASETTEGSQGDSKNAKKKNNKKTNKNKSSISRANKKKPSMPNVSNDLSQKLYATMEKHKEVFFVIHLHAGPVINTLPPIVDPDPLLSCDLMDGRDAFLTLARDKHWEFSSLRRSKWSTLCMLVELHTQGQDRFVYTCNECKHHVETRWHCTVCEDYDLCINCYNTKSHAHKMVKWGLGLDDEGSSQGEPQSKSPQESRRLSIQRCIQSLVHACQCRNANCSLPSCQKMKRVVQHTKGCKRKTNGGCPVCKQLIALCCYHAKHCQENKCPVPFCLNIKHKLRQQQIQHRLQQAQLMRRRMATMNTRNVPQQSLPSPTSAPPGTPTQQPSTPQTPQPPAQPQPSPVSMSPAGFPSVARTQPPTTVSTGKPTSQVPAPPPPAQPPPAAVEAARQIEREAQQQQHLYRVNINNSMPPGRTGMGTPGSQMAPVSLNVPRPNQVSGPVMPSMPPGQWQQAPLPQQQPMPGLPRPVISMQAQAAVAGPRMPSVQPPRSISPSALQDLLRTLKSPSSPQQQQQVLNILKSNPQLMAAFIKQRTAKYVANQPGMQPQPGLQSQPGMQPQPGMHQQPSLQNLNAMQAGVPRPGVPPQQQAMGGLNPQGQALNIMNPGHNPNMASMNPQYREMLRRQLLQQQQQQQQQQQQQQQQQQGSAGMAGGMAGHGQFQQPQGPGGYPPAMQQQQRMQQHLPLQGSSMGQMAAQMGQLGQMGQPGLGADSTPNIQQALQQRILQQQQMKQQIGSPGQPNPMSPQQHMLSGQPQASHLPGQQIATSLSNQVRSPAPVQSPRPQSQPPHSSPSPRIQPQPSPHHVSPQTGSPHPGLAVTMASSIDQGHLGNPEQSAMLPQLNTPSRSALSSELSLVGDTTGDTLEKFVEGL

[17] = Toxicity in SCID mouse xenografted with human RS4-11 cells assessed as body weight loss at 1 mg/kg, ip administered twice a week on day 1 and day 4 for 2 weeks relative to control; type: organism-based; settings: in vivo, 336 h
[18] = target: T3, Non-selective voltage-gated ion channel VDAC2 (Homo sapiens) (UniProt P45880); test: Induction of VDAC2 degradation in human RS4-11 cells assessed as fold reduction in protein level at 10 nM incubated for 4 hrs by Western blot analysis; type: cell-based
T3 sequence (whole entry): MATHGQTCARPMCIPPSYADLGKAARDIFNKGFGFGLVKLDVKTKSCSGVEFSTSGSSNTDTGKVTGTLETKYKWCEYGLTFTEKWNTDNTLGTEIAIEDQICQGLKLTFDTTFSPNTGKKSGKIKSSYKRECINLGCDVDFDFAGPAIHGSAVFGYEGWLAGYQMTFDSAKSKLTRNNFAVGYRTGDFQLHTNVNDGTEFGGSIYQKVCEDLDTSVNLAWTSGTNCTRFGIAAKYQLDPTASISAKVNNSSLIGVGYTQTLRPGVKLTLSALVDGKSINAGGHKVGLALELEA

[19] = test system: RS4-11; test: Antitumor activity against human RS4-11 cells xenografted in SCID mouse assessed as tumor growth inhibition at 1 mg/kg, ip administered thrice a week on day 1, 3 and 5 for 2 weeks relative to control; type: functional; parameters: scale not given: the % may be the effect or the level left
[20] = target: T1, Histone acetyltransferase p300; test: Induction of p300 degradation in human RS4-11 cells incubated for 4 hrs by Western blot assay; type: cell-based
[21] = test system: RS4-11; test: Downregulation of MYB gene expression in human RS4-11 cells at 1 nM measured after 8 hrs by qRT-PCR analysis; type: functional, cell-based
[22] = test system: RS4-11; test: In vivo induction of p300 degradation in human RS4-11 cells xenografted in SCID mouse at 3 mg/kg, ip measured after 3 to 6 hrs by Western blot analysis; type: functional, organism-based; settings: time 3-6 hrs
[23] = test system: RS4-11; test: Antitumor activity against human RS4-11 cells xenografted in SCID mouse assessed as tumor growth inhibition at 0.3 mg/kg, ip administered five days a week for 2 weeks relative to control; type: functional; parameters: scale not given: the % may be the effect or the level left
[24] = test system: Mus musculus; test: In vivo induction of CBP degradation in human RS4-11 cells xenografted in SCID mouse at 1 mg/kg, ip measured after 3 hrs by Western blot analysis; type: functional, organism-based
[25] = test system: RS4-11; test: Antitumor activity against human RS4-11 cells xenografted in SCID mouse assessed as tumor growth inhibition at 3 mg/kg, ip administered once a week on day 1 for 2 weeks relative to control; type: functional; parameters: scale not given: the % may be the effect or the level left
[26] = target: T2, CREB-binding protein; test: Induction of CBP degradation in human RS4-11 cells assessed as maximal degradation incubated for 4 hrs by Western blot assay; type: cell-based
Target sequence in this assay (Q92793 2-2442 limits assumed): as the sequence (Q92793 2-2442 limits assumed) above

[27] = target: Non-selective voltage-gated ion channel VDAC1 (Homo sapiens) (UniProt P21796); test: Induction of VDAC1 degradation in human RS4-11 cells assessed as fold reduction in protein level at 10 nM incubated for 4 hrs by Western blot analysis; type: cell-based
Chain of Non-selective voltage-gated ion channel VDAC1 (Homo sapiens) (P21796 whole entry): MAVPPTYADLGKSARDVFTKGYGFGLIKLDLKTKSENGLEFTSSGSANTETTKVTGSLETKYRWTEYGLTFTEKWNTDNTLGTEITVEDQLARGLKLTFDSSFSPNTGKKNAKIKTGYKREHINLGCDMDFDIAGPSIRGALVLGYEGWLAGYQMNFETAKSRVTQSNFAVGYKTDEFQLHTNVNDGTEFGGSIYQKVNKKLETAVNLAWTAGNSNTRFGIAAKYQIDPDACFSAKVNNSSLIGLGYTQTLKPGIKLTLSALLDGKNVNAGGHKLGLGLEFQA

[28] = Drug concentration in SCID mouse tumor xenografted with RS4-11 cells at 1 mg/kg, ip measured after 3 hrs by LC-HRMS method; type: ADME, organism-based, Neoplasm; settings: read-out: Ct
[29] = test system: RS4-11; test: In vivo induction of CBP degradation in human RS4-11 cells xenografted in SCID mouse at 3 mg/kg, ip measured after 3 to 6 hrs by Western blot analysis; type: functional, organism-based; settings: time 3-6 hrs
[30] = Drug concentration in IP dosed SCID mouse tumor xenografted with RS4-11 cells measured after 24 to 48 hrs by LC-HRMS method; type: ADME, organism-based, Neoplasm; settings: in vivo, time 24-48 hrs
[31] = target: T1, Histone acetyltransferase p300; test: Induction of p300 degradation in human RS4-11 cells at 10 nM incubated for 3 hrs by Proteomics analysis; type: cell-based
[32] = test system: Mus musculus; test: In vivo induction of p300 degradation in human RS4-11 cells xenografted in SCID mouse at 3 mg/kg, ip measured after 24 to 48 hrs by Western blot analysis; type: functional, organism-based; settings: time 24-48 hrs
[33] = test system: Mus musculus; test: In vivo induction of p300 degradation in human RS4-11 cells xenografted in SCID mouse at 1 mg/kg, ip measured after 3 hrs by Western blot analysis; type: functional, organism-based
[34] = test system: RS4-11; test: Antitumor activity against human RS4-11 cells xenografted in SCID mouse assessed as tumor growth inhibition at 1 mg/kg, ip administered twice a week on day 1 and day 4 for 2 weeks relative to control; type: functional; parameters: scale not given: the % may be the effect or the level left
[35] = target: Bromodomain-containing protein 4 (Homo sapiens) (UniProt O60885); test: Induction of BRD4 degradation in human RS4-11 cells at 10 nM incubated for 4 hrs by Western blot analysis; type: cell-based
[36] = test system: Mus musculus; test: In vivo induction of CBP degradation in human RS4-11 cells xenografted in SCID mouse at 3 mg/kg, ip measured after 24 to 48 hrs by Western blot analysis; type: functional, organism-based; settings: time 24-48 hrs
[37] = target: T2, CREB-binding protein; test: Induction of CBP degradation in human RS4-11 cells incubated for 4 hrs by Western blot assay; type: cell-based

Compound: CNC(=O)Nc1ccc2c(c1)CC[C@]21CN(CC(=O)N(Cc2ccc(F)cc2)[C@H](C)C(F)(F)F)C(=O)O1
Imax [1]: 99%
Imax [2]: 94%
IC50 [3]: 152 nM
Imax ([4]; 96 h): 93.5% and 89% and 99%
Imax [5]: 96%
IC50 [6]: 239 nM
IC50 [7]: 156 nM

Compound: CO[C@H]1CC[C@@H](n2c(C3CCCC(=O)N3c3ccc(F)c(F)c3)nc3cc(-c4c(C)noc4C)ccc32)CC1 (stereo partly drawn)
IC50 [8]: 544 nM
Imax [1]: 99%
Imax [2]: 98%
Activity [9]: Active
IC50 [3]: 30 nM
Imax [4]: 99.8%
Imax [5]: 99%
IC50 [6]: 23 nM
IC50 [7]: 51.6 nM

Emax [13]: 99%
concentration at 3 h [15]: 240 ng/g
Activity [16]: Active
fold change (FC) [18]: 2
EC50 [20]: 0.2 nM
Emax [26]: 99%
fold change (FC) [27]: 2
concentration at 3 h [28]: 57.5 ng/g
Drug uptake [30]: Not Active
Activity [31]: Active
Activity [35]: inactive
EC50 [37]: 0.05 nM
Compound: CC(=O)N1CCc2c(c(-c3cccc4cc(-c5ccc(C(=O)NC6CCN(c7ccc8c(c7)CN(C7CCC(=O)NC7=O)C8=O)CC6)nc5)ncc34)nn2C2CCOCC2)C1 (stereo not drawn)
Activity [10]: < 3%
Activity [11]: Active
Activity [12]: < 3%
IC50 [8]: 0.1 nM
Imax [1]: 96%
Imax [2]: 99%
Activity [9]: Active
IC50 [3]: 0.54 nM
Activity [14]: < 10%
Imax [4]: 94%
Activity [17]: < 10%
Imax [5]: 96%
Activity [19]: 68%
Activity [21]: Active
Activity [22]: Active
Activity [23]: 68%
Activity [24]: Active
Activity [25]: 81%
Activity [29]: Active
IC50 [6]: 2.3 nM
Activity [32]: inactive
Activity [33]: Active
Activity [34]: 81%
Activity [36]: inactive
IC50 [7]: 0.04 nM

— ChEMBL document CHEMBL5338817, “Discovery of Exceptionally Potent, Selective, and Efficacious PROTAC Degraders of CBP and p300 Proteins” (J Med Chem, 2023)
